Consider one compound from patent US7763580B2, “Methods for treating conditions associated with the accumulation of excess extracellular matrix” (University of Utah Research Foundation, priority 1999, dated 2010).

One experiment deals with anti-Thy 1 model. The conditions noted are these: monotherapy, anti-Thy 1 model (Peters et al.); L-arginine 1% in drinking water; cited from earlier work.
The subject of experiment [1] is Normal fetal human mesangial cells. Put plainly: Renin-induced TGFβ production by fetal human mesangial cells (ELISA). It counts as cell-based. The note with it: 10^−5 M inhibitor added at zero time with 10^−7 M human recombinant renin, FIG. 3. The protocol: Normal fetal human mesangial cells (Clonetics Corp., Clonetics, Walkersville, Md.) passaged 5 to 8 times, were plated (3,000 cell/cm^2) in 12 well plates in 2 ml of medium (Mesangial Basal Medium (Clonetics Corp.) containing 5% FCS, 10 μg/ml penicillin and 100 μg/ml streptomycin) and allowed to grow to confluence for 48 hours at 37EC, 5% CO2. Cultures were washed three times using sterile phosphate buffered saline at room temperature and then 2 ml/well of serum free MBM medium to induce quiescence. After 48 hours, the serum-free medium was removed and 2 ml/well of fresh serum-free medium was added. Human recombinant renin (Hoffman-La Roche Ltd., Basel, Switzerland) in concentrations from 10^−6 to 10^−12 M was added to each well. A blank and 5 ng/ml of TGFβ (R & D Systems, Minneapolis, Minn.) were used as controls. Cells and supernatants were harvested by centrifugation after 24 hrs of culture and frozen at ^−70EC until analysis. The total production and release of TGFβ into the culture supernatant was measured using an ELISA kit (R & D Systems). Induction of PAI-1 and fibronectin in the supernatant are also measured using anti-PAI-1 and anti-fibronectin antibodies in an ELISA to provide further confirmation of the inhibition of TGFβ. TGFβ, fibronectin and PAI-1 mRNA are measured using semi-quantitative RT-PCR.
Renin inhibitor Ro42-5892 (Hoffman-LaRoche, Basel, Switzerland), Losartan™ (Merck Pharmaceuticals, West Point, Pa.), Enalapril™ (Sigma Chemical Co., St. Louis, Mo., Prod. No. E6888), or TGFβ1 neutralizing antibody (R & D Systems) were added in the amounts indicated below to separate wells in triplicate to block the renin cascade at different sites after stimulation by renin: • 10^−5 M Renin Inhibitor R042-5892 (Hoffman-LaRoche) • 30 ng/ml Anti-TGFβ1 antibody (R & D Systems, #AB 101 NA) • 30 ng/ml Chicken IgG (control for anti-TGFβ1 antibody, R & D Systems, # AB 101 C) • 10^−5 M Enalapril™ (Sigma Chemical Co., St. Louis, Mo.) • 10^−5 M Losartan™ (Merck Pharmaceuticals, West Point, Pa.)
These inhibitors were added at zero time with 10^−7 M human recombinant renin (Hoffman-LaRoche).
A general note: An ELISA detects its analyte on a solid surface through an enzyme-linked reagent.

In experiment [2] the test system is anti-Thy 1 glomerulonephritis. Put plainly: Glomerular ED1+ monocyte/macrophage count. It counts as in vivo, Sprague Dawley rats. The note with it: Enalapril alone, P<0.05. On the procedure: (§1) These experiments were performed on male Sprague Dawley rats (200-250 g) obtained from the Sasco colony of Charles River Laboratories (Wilmington, Mass., USA). Animal housing and care were in accordance with the NIH Guide for the Care and Use of Laboratory Animals, NIH Publication No. 85-23, 1985. Animals were fed a normal protein diet (22% protein, Teklad No. 86 550, Teklad Premier Laboratory Diets, Madison, Wis., USA). Glomerulonephritis was induced by tail vein injection of 2.25 mg/Kg of the monoclonal anti-Thy 1.1 antibody OX-7 (NCCC, Biovest International Inc, Minneapolis, Minn., USA). OX-7 binds to a Thy 1-like epitope on the surface of mesangial cells causing complement-dependent cell lysis followed by fibrotic tissue repair (Bagchus et al., Lab Invest. 55:680-687 (1986)). Control animals were injected with similar volumes of phosphate-buffered saline (PBS). […] The intensity of glomerular staining of collagen I and fibronectin was evaluated according to a 0 to 4 scale, which has been described in detail previously (Yamamoto et al., Kidney Int. 49:461-469 (1996)). The number of cells per glomerulus, staining positive for the monocyte/macrophage marker ED1, were counted. Thirty glomeruli per sample were evaluated. The mean values with standard error values were calculated. […] The percent reduction in disease severity in a treated group was calculated as: […]

In experiment [3] the test system is anti-Thy 1 glomerulonephritis. The experiment is described as follows: Immunofluorescent staining of glomerular fibronectin EDA+ and collagen I. It counts as in vivo, Sprague Dawley rats. The note with it: enalapril alone. The protocol: as §1

For the compound `CCOC(=O)[C@H](CCc1ccccc1)N[C@@H](C)C(=O)N1CCC[C@H]1C(=O)O` [enalapril], in the experiment with anti-Thy 1 model, the “reduction of markers of fibrotic disease” value was “about 50%”. Also, in experiment [1], the “renin-induced increase in TGFβ production” value is “does not reduce the renin-induced increase in TGFβ production”. Besides, the “reduction of number of ED1+ cells” value in experiment [2] is listed as 62%. In experiment [3], the “reduction of collagen I immunostaining” value was 33% and the “reduction of fibronectin immunostaining” value is reported as 36%.
